From BigSolDB 2.1

Row | solubility (mole fraction) (in n-octanol, 293.15 K) | solubility (mole fraction) (in n-octanol, 298.15 K) | solubility (mole fraction) (in n-octanol, 303.15 K) | solubility (mole fraction) (in n-octanol, 310.15 K) | solubility (mole fraction) (in n-octanol, 315.15 K) | solubility (mole fraction) (in water, 293.15 K) | solubility (mole fraction) (in water, 298.15 K) | solubility (mole fraction) (in water, 303.15 K) | solubility (mole fraction) (in water, 310.15 K) | solubility (mole fraction) (in water, 315.15 K) | solubility (mole fraction) (in n-octanol, 290.15 K) | solubility (mole fraction) (in water, 295.15 K) | Structure (SMILES)
1 | 5.85e-05 | 7.4e-05 | 9.37e-05 | 0.000128 | 0.000164 | 1.05e-07 | 1.19e-07 | 1.35e-07 | 1.55e-07 | 1.75e-07 | – | – | Nc1ccc(S(=O)(=O)Nc2ccccc2Cl)c(Cl)c1
2 | – | 0.000412 | 0.000529 | 0.000667 | 0.00089 | 6.12e-07 | 7.25e-07 | 8.98e-07 | 1.03e-06 | 1.24e-06 | 0.000347 | – | Nc1ccc(S(=O)(=O)Nc2cc(Cl)ccc2Cl)cc1
3 | 0.00319 | 0.00356 | 0.00393 | 0.00465 | 0.00519 | 4.79e-07 | 6.71e-07 | 9.04e-07 | 1.35e-06 | 1.68e-06 | – | – | Cc1cc(N)ccc1S(=O)(=O)Nc1ccc(Cl)cc1
4 | 0.00153 | 0.00188 | 0.00221 | 0.00273 | 0.00323 | – | 7.72e-07 | 1.03e-06 | 1.51e-06 | 2.12e-06 | – | 6.16e-07 | Cc1ccc(Cl)cc1NS(=O)(=O)c1ccc(N)cc1
5 | 0.00133 | 0.00158 | 0.0018 | 0.00221 | 0.00259 | – | 7.65e-07 | 9.36e-07 | 1.18e-06 | 1.45e-06 | – | 7.06e-07 | Cc1ccc(NS(=O)(=O)c2ccc(N)cc2)c(Cl)c1
6 | 8.97e-05 | 0.000115 | 0.000143 | 0.000192 | 0.000242 | 1.39e-07 | 1.57e-07 | 1.74e-07 | 2.07e-07 | 2.32e-07 | – | – | Cc1cc(N)ccc1S(=O)(=O)Nc1ccccc1Cl
7 | 0.00426 | 0.00489 | 0.00556 | 0.00675 | 0.00786 | 1.25e-06 | 1.61e-06 | 2.11e-06 | 3.08e-06 | 3.74e-06 | – | – | Cc1cc(Cl)ccc1NS(=O)(=O)c1ccc(N)cc1
8 | 0.00097 | 0.00109 | 0.00118 | 0.00146 | 0.00179 | 2.22e-07 | 2.51e-07 | 2.74e-07 | 3.07e-07 | 3.33e-07 | – | – | Nc1ccc(S(=O)(=O)Nc2cc(Cl)c(Cl)cc2Cl)cc1
9 | 0.000491 | 0.000552 | 0.00064 | 0.000801 | 0.000897 | 1.26e-07 | 1.53e-07 | 1.79e-07 | 2.25e-07 | 2.56e-07 | – | – | Cc1ccc(NS(=O)(=O)c2ccc(N)cc2)cc1Cl
10 | – | 0.000356 | 0.000422 | 0.000501 | 0.000617 | 1.67e-07 | 2.05e-07 | 2.48e-07 | 3.26e-07 | 3.89e-07 | 0.000317 | – | Nc1ccc(S(=O)(=O)Nc2ccc(Cl)c(Cl)c2)cc1
11 | – | 0.00132 | 0.00145 | 0.00153 | 0.00167 | 9.2e-07 | 1.19e-06 | 1.51e-06 | 2.02e-06 | 2.84e-06 | 0.00126 | – | Nc1ccc(S(=O)(=O)Nc2ccc(Cl)cc2)cc1
12 | 0.0021 | 0.00248 | 0.00287 | 0.00349 | 0.00391 | 4.05e-07 | 4.72e-07 | 5.62e-07 | 6.86e-07 | 8.12e-07 | – | – | Nc1ccc(S(=O)(=O)Nc2ccc(Cl)cc2)c(Cl)c1
13 | 0.000152 | 0.000198 | 0.000247 | 0.000345 | 0.000449 | 4.41e-07 | 5.17e-07 | 5.79e-07 | 8.02e-07 | 9.35e-07 | – | – | Cc1cc(N)ccc1S(=O)(=O)Nc1ccccc1[N+](=O)[O-]
